# ChEMBL document CHEMBL1201862, “PubChem BioAssay data set” (2004)
#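 Growth conditions: 96-well plates. Treatment: test compound, 48 hours, 5 concentrations. Analysis: linear interpolation between bracketing concentrations; unreached endpoints set to highest concentration. At the GI50, growth is halved.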 Activity calls are given as the source filed them. No stated cut-off is given here; in the data, active = GI50 up to about 1.1 µM and inactive = higher.
# Tests used:
# Experiment in all cases: growth of human tumour cells (NCI), 48 h
# NCI-H23 = tested on: NCI-H23
# ACHN = tested on: ACHN
# Hs-578T = tested on: Hs-578T
# SK-MEL-28 = tested on: SK-MEL-28
# MCF7 = tested on: MCF7
# IGROV-1 = tested on: IGROV-1
# SN12C = tested on: SN12C
# 786-0 = tested on: 786-0
# UO-31 = tested on: UO-31
# PC-3 = tested on: PC-3
# NCI/ADR-RES = tested on: NCI/ADR-RES
# NCI-H522 = tested on: NCI-H522
# RPMI-8226 = tested on: RPMI-8226
# OVCAR-3 = tested on: OVCAR-3
# RXF 393 = tested on: RXF 393
# A498 = tested on: A498
# CAKI-1 = tested on: CAKI-1
# MDA-N = tested on: MDA-N
# SNB-19 = tested on: SNB-19
# KM12 = tested on: KM12
# LOX IMVI = tested on: LOX IMVI
# SF-295 = tested on: SF-295
# HT-29 = tested on: HT-29
# M14 = tested on: M14
# MDA-MB-231 = tested on: MDA-MB-231
# COLO 205 = tested on: COLO 205
# Malme-3M = tested on: Malme-3M
# HOP-92 = tested on: HOP-92
# MOLT-4 = tested on: MOLT-4
# UACC-257 = tested on: UACC-257
# EKVX = tested on: EKVX
# CCRF-CEM = tested on: CCRF-CEM
# A549 = tested on: A549
# SNB-75 = tested on: SNB-75
# T47D = tested on: T47D
# SK-MEL-2 = tested on: SK-MEL-2
# HCC 2998 = tested on: HCC 2998
# SW-620 = tested on: SW-620
# OVCAR-4 = tested on: OVCAR-4
# BT-549 = tested on: BT-549
# OVCAR-5 = tested on: OVCAR-5
# U-251 = tested on: U-251
# HOP-62 = tested on: HOP-62
# SF-268 = tested on: SF-268
# HCT-15 = tested on: HCT-15
# NCI-H460 = tested on: NCI-H460
# HCT-116 = tested on: HCT-116
# SF-539 = tested on: SF-539
# DU-145 = tested on: DU-145
# MDA-MB-435 = tested on: MDA-MB-435
# OVCAR-8 = tested on: OVCAR-8
# K562 = tested on: K562
# UACC-62 = tested on: UACC-62
# TK-10 = tested on: TK-10
# NCI-H226 = tested on: NCI-H226
# SK-OV-3 = tested on: SK-OV-3
# SK-MEL-5 = tested on: SK-MEL-5
structure (smiles),measurement,setting,value
Clc1ccc(C2ON=C(c3ccccc3)N2C23CC4CC(CC(C4)C2)C3)cc1Cl (configuration not stated),GI50,NCI-H23,> 10 µM (inactive)
same,GI50,ACHN,> 10 µM (inactive)
same,GI50,Hs-578T,> 10 µM (inactive)
same,GI50,SK-MEL-28,7.93 µM (inactive)
same,GI50,MCF7,> 10 µM (inactive)
same,GI50,IGROV-1,> 10 µM (inactive)
same,GI50,SN12C,> 10 µM (inactive)
same,GI50,786-0,> 10 µM (inactive)
same,GI50,UO-31,> 10 µM (inactive)
same,GI50,PC-3,> 10 µM (inactive)
same,GI50,NCI/ADR-RES,> 10 µM (inactive)
same,GI50,NCI-H522,> 10 µM (inactive)
same,GI50,RPMI-8226,> 10 µM (inactive)
same,GI50,OVCAR-3,> 10 µM (inactive)
same,GI50,RXF 393,> 10 µM (inactive)
same,GI50,A498,> 10 µM (inactive)
same,GI50,CAKI-1,> 10 µM (inactive)
same,GI50,MDA-N,> 10 µM (inactive)
same,GI50,SNB-19,> 10 µM (inactive)
same,GI50,KM12,> 10 µM (inactive)
same,GI50,LOX IMVI,> 10 µM (inactive)
same,GI50,SF-295,> 10 µM (inactive)
same,GI50,HT-29,> 10 µM (inactive)
same,GI50,M14,> 10 µM (inactive)
same,GI50,MDA-MB-231,> 10 µM (inactive)
same,GI50,COLO 205,> 10 µM (inactive)
same,GI50,Malme-3M,> 10 µM (inactive)
same,GI50,HOP-92,7.13 µM (inactive)
same,GI50,MOLT-4,> 10 µM (inactive)
same,GI50,UACC-257,> 10 µM (inactive)
same,GI50,EKVX,> 10 µM (inactive)
same,GI50,CCRF-CEM,> 10 µM (inactive)
same,GI50,A549,> 10 µM (inactive)
same,GI50,SNB-75,> 10 µM (inactive)
same,GI50,T47D,> 10 µM (inactive)
same,GI50,SK-MEL-2,> 10 µM (inactive)
same,GI50,HCC 2998,> 10 µM (inactive)
same,GI50,SW-620,> 10 µM (inactive)
same,GI50,OVCAR-4,> 10 µM (inactive)
same,GI50,BT-549,> 10 µM (inactive)
same,GI50,OVCAR-5,> 10 µM (inactive)
same,GI50,U-251,> 10 µM (inactive)
same,GI50,HOP-62,> 10 µM (inactive)
same,GI50,SF-268,> 10 µM (inactive)
same,GI50,HCT-15,> 10 µM
same,GI50,NCI-H460,> 10 µM (inactive)
same,GI50,HCT-116,> 10 µM (inactive)
same,GI50,SF-539,> 10 µM (inactive)
same,GI50,DU-145,> 10 µM (inactive)
same,GI50,MDA-MB-435,> 10 µM (inactive)
same,GI50,OVCAR-8,> 10 µM (inactive)
same,GI50,K562,> 10 µM (inactive)
same,GI50,UACC-62,> 10 µM (inactive)
same,GI50,TK-10,> 10 µM (inactive)
same,GI50,NCI-H226,> 10 µM (inactive)
same,GI50,SK-OV-3,> 10 µM (inactive)
same,GI50,SK-MEL-5,> 10 µM (inactive)
